Test results from patent publication US7049313B2, “ATM inhibitors” (Kudos Pharmaceuticals Ltd., priority 2002, dated 2006).
Where a name gives a salt, the structure may show the parent alone.

The compounds below were run against T1, ATM (Homo sapiens, UniProt Q13315) (assay: In vitro ATM inhibition assay (phosphorylation of GSTp53N66 on serine 15)).
T1 construct: ATM protein was immunoprecipitated from HeLa cell nuclear extract; endogenous in cells; host or cells: HeLa cell nuclear extract (immunoprecipitate)
T1 sequence (Q13315 whole entry): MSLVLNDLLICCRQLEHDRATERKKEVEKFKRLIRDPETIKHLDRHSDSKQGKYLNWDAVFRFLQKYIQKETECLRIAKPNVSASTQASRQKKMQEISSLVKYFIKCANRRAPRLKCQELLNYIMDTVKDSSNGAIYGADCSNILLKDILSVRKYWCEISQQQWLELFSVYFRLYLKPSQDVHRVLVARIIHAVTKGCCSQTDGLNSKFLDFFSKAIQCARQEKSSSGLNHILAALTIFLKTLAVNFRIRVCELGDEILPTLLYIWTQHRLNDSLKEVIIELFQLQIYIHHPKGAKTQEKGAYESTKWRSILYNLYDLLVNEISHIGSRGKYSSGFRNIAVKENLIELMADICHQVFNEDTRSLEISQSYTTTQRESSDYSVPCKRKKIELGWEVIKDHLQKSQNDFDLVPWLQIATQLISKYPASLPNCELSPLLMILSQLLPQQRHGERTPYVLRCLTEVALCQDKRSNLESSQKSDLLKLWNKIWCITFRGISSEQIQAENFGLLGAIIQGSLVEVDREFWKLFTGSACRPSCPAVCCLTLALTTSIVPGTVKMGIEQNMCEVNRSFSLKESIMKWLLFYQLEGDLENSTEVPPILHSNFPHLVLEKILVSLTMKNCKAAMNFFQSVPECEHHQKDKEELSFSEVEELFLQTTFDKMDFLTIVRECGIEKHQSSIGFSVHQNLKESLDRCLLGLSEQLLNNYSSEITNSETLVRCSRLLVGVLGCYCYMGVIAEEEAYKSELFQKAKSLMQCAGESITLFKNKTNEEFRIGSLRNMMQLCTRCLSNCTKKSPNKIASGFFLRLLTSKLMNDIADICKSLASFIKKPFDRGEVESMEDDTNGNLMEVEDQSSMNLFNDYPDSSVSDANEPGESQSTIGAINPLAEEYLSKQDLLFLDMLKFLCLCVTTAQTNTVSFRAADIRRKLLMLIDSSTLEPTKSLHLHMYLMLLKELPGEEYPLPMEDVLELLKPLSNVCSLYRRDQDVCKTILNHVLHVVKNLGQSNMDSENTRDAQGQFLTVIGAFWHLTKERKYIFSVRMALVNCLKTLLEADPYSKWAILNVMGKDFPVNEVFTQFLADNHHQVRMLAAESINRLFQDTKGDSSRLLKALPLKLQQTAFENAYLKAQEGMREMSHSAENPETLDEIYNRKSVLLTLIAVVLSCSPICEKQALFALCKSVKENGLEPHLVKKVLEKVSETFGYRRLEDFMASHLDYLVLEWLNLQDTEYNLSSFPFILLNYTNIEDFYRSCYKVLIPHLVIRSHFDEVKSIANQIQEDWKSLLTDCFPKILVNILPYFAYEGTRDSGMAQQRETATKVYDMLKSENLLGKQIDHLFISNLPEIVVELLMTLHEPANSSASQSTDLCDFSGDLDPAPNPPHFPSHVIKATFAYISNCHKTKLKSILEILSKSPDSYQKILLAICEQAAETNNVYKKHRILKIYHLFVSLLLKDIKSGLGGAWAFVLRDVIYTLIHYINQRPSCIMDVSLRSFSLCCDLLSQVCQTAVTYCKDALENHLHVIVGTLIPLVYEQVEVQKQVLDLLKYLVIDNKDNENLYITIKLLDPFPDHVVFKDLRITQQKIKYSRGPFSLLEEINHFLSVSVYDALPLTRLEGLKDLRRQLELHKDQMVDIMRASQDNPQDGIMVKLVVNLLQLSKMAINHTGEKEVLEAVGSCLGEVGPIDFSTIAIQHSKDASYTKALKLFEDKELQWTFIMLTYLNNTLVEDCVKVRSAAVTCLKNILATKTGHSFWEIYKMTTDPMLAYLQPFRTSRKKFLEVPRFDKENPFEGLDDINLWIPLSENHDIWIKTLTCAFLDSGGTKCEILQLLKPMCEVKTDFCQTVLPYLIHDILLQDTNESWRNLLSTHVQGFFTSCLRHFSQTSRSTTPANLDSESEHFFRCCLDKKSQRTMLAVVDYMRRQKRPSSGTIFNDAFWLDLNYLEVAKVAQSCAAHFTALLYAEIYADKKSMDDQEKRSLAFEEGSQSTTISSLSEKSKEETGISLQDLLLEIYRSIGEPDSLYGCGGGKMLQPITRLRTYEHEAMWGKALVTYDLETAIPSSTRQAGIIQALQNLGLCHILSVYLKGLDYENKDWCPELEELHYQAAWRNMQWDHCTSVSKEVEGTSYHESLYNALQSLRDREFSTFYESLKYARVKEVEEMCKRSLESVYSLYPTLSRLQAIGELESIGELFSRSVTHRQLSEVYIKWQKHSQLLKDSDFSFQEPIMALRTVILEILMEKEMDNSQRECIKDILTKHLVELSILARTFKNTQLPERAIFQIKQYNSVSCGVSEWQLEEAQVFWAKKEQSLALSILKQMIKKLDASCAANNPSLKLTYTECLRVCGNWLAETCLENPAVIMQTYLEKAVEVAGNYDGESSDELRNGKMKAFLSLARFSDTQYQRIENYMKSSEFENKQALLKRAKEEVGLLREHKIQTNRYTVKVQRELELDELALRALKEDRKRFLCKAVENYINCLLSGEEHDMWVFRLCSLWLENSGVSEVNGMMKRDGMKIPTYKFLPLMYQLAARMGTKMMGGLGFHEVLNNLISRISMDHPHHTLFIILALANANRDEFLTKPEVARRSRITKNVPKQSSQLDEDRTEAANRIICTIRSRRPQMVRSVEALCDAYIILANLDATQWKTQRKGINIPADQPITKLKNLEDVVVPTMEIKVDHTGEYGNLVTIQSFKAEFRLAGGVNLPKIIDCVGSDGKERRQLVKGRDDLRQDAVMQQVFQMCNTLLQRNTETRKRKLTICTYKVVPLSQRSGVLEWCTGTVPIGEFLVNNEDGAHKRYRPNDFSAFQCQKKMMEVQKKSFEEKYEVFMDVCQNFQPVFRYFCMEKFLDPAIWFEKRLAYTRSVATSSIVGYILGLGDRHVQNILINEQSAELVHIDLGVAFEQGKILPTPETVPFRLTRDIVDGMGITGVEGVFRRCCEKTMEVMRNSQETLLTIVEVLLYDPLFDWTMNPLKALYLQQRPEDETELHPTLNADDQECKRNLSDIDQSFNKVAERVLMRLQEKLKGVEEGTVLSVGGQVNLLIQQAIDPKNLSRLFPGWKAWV
Format: biochemical
Description: In vitro ATM inhibition Assays
In order to assess the inhibitory action of the compounds against ATM in vitro, the following assay was used to determine IC50 values.
ATM protein was immunoprecipitated from HeLa cell nuclear extract using rabbit polyclonal anti-sera raised to the C-terminal ˜500 amino-acid residues of the human ATM protein. The immunoprecipitation was performed according to the methodology described by Banin, S. et al. (1998). 10 μl of immunoprecipitated ATM in Buffer C (50 mM Hepes, pH 7.4, 6 mM MgCl2, 150 mM NaCl, 0.1 mM sodium orthovanadate, 4 mM MnCl2, 0.1 mM dithiothreitol, 10% glycerol) was added to 32.5 μl of buffer C containing 1 μg of the ATM substrate GSTp53N66 in a V-bottomed 96 well polypropylene plate. The GSTp53N66 substrate is the amino terminal 66 amino acid residues of human wild type p53 fused to glutathione S-transferase. ATM phosphorylates p53 on the residue serine 15 (Banin, S. et al. (1998)). Varying concentrations of inhibitor were then added. […] After 10 minutes of incubation at 37° C., the reactions were initiated by the addition of 5 μl of 500 μM Na-ATP. After 1 hour with shaking at 37° C., 150 μl of phosphate buffered saline (PBS) was added to the reaction and the plate centrifuged at 1500 rpm for 10 minutes. 5 μl of the reaction was then transferred to a 96 well opaque white plate containing 45 μl of PBS to allow the GSTp53N66 substrate to bind to the plate wells. The plate was covered and incubated at room temperature for 1 hour with shaking before discarding the contents. The plate wells were washed twice by the addition of PBS prior to the addition of 3% (w/v) bovine serum albumin (BSA) in PBS. The plate was incubated at room temperature for 1 hour with shaking before discarding the contents and washing twice with PBS. To the wells, 50 μl of a 1:10,000 dilution of primary phosphoserine-15 antibody (Cell Signaling Technology, #9284L) in 3% BSA/PBS was added to detect the phosphorylation event on the serine 15 residue of p53 elicited by the ATM kinase. After 1 hour of incubation at room temperature with shaking, the wells were washed four times with PBS prior to the addition of an anti-rabbit HRP conjugated secondary antibody (Pierce, 31462) with shaking for 1 hour at room temperature. The wells were then washed four times with PBS before the addition of chemiluminescence reagent (NEN Renaissance, NEL105). The plate was then shaken briefly, covered with a transparent plate seal and transferred to a TopCount NXT for chemiluminescent counting. Counts per second, following a one second counting time, were recorded for each reaction.
The enzyme activity for each compound is then calculated using the following equation: […]
With `COc1ccc(CNCCC(=O)Nc2ccc3c(c2)Cc2cccc(-c4cc(=O)cc(N5CCOCC5)o4)c2S3)cc1` [Compound 81] the IC50 was < 200 nM. `O=C(CN1CCNCC1)Nc1ccc2c(c1)Cc1cccc(-c3cc(=O)cc(N4CCOCC4)o3)c1S2` [Compound 52] was tested, and the IC50 was < 200 nM. In the case of `CN1CCN(CCC(=O)Nc2ccc3c(c2)Cc2cccc(-c4cc(=O)cc(N5CCOCC5)o4)c2S3)CC1` [Compound 71], the IC50 is reported as < 200 nM. In the case of `Cc1nnsc1C(=O)Nc1ccc(-c2cc(=O)cc(N3CCOCC3)o2)c2c1Cc1ccccc1S2` [Compound 111], the IC50 is reported as < 200 nM. For `O=C(CCNCC1CCCO1)Nc1ccc2c(c1)Cc1cccc(-c3cc(=O)cc(N4CCOCC4)o3)c1S2` (stereo not shown) [Compound 86], the IC50 was < 200 nM. With `COC(=O)CCC(=O)Nc1ccc2c(c1)Cc1cccc(-c3cc(=O)cc(N4CCOCC4)o3)c1S2` [Compound 39] the IC50 was < 200 nM. `COC(=O)C(=O)Nc1ccc2c(c1)Cc1cccc(-c3cc(=O)cc(N4CCOCC4)o3)c1S2` [Compound 34] was tested, and the IC50 was < 200 nM. With `COC(=O)CC(=O)Nc1ccc2c(c1)Cc1cccc(-c3cc(=O)cc(N4CCOCC4)o3)c1S2` [Compound 23] the IC50 was < 200 nM. `N#Cc1cccc(NC(=O)Nc2ccc(-c3cc(=O)cc(N4CCOCC4)o3)c3c2Cc2ccccc2S3)c1` [Compound 117] was tested, and the IC50 was < 200 nM. With `O=C(CSc1ncn[nH]1)Nc1ccc2c(c1)Cc1cccc(-c3cc(=O)cc(N4CCOCC4)o3)c1S2` [Compound 64] the IC50 was < 200 nM. `CC(=O)N1CCC(C(=O)Nc2ccc3c(c2)Cc2cccc(-c4cc(=O)cc(N5CCOCC5)o4)c2S3)CC1` [Compound 36] was tested, and the IC50 was < 200 nM. `O=c1cc(-c2ccc(F)c3c2Sc2ccccc2C3)oc(N2CCOCC2)c1` [Compound 17, 2-(1-Fluoro-9H-thioxanthen-4-yl)-6-morpholin-4-yl-pyran-4-one] was tested, and the IC50 was < 200 nM. For `CCN(CC)CCNC(=O)c1ccc2c(c1)Sc1cccc(-c3cc(=O)cc(N4CCOCC4)o3)c1S2` [Compound 181], the IC50 was < 200 nM. In the case of `CN(CCc1ccccn1)C(=O)c1ccc2c(c1)Sc1cccc(-c3cc(=O)cc(N4CCOCC4)o3)c1S2` [Compound 174], the IC50 is reported as < 200 nM. With `O=C(NC1CCCCC1)c1ccc2c(c1)Sc1cccc(-c3cc(=O)cc(N4CCOCC4)o3)c1S2` [Compound 151] the IC50 was < 200 nM. For `CC1CN(C(=O)c2ccc3c(c2)Sc2cccc(-c4cc(=O)cc(N5CCOCC5)o4)c2S3)CC(C)O1` (stereo not shown) [Compound 158], the IC50 was < 200 nM. With `Cc1noc(C)c1C(=O)Nc1ccc2c(c1)Cc1cccc(-c3cc(=O)cc(N4CCOCC4)o3)c1S2` [Compound 33] the IC50 was < 200 nM. `O=C(O)c1ccc2c(c1)Sc1cccc(-c3cc(=O)cc(N4CCOCC4)o3)c1S2` [Compound 138, 6-(6-Morpholin-4-yl-4-oxo-4H-pyran-2-yl)-thianthrene-2-carboxylate sodium salt] was tested, and the IC50 was < 200 nM. In the case of `O=C(CN1CCCNCC1)Nc1ccc2c(c1)Cc1cccc(-c3cc(=O)cc(N4CCOCC4)o3)c1S2` [Compound 60], the IC50 is reported as < 200 nM. `CN(C)C(=O)c1ccc2c(c1)Sc1cccc(-c3cc(=O)cc(N4CCOCC4)o3)c1S2` [Compound 140] was tested, and the IC50 was < 200 nM. `O=C(CNCCO)Nc1ccc2c(c1)Cc1cccc(-c3cc(=O)cc(N4CCOCC4)o3)c1S2` [Compound 56] was tested, and the IC50 was < 200 nM. In the case of `O=C(O)C1CC1C(=O)Nc1ccc2c(c1)Cc1cccc(-c3cc(=O)cc(N4CCOCC4)o3)c1S2` (stereo not shown) [Compound 49], the IC50 is reported as < 200 nM. With `CN1CCCN(CCC(=O)Nc2ccc3c(c2)Cc2cccc(-c4cc(=O)cc(N5CCOCC5)o4)c2S3)CC1` [Compound 77] the IC50 was < 200 nM. In the case of `O=C(Nc1ccc2c(c1)Cc1cccc(-c3cc(=O)cc(N4CCOCC4)o3)c1S2)c1cccs1` [Compound 30], the IC50 is reported as < 200 nM. With `O=C(Nc1ccc2c(c1)Cc1cccc(-c3cc(=O)cc(N4CCOCC4)o3)c1S2)c1ccno1` [Compound 47] the IC50 was < 200 nM. With `O=C(CCNCCCN1CCOCC1)Nc1ccc2c(c1)Cc1cccc(-c3cc(=O)cc(N4CCOCC4)o3)c1S2` [Compound 80] the IC50 was < 200 nM. For `CN1CCCC1CCNC(=O)c1ccc2c(c1)Sc1cccc(-c3cc(=O)cc(N4CCOCC4)o3)c1S2` (stereo not shown) [Compound 168], the IC50 was < 200 nM. `CC(C)(C)OC(=O)Nc1ccc(-c2cc(=O)cc(N3CCOCC3)o2)c2c1Cc1ccccc1S2` [Compound 127] was tested, and the IC50 was < 200 nM. For `O=C(O)CCC(=O)Nc1ccc2c(c1)Cc1cccc(-c3cc(=O)cc(N4CCOCC4)o3)c1S2` [Compound 48], the IC50 was < 200 nM. `O=C(CNCCN1CCOCC1)Nc1ccc2c(c1)Cc1cccc(-c3cc(=O)cc(N4CCOCC4)o3)c1S2` [Compound 67] was tested, and the IC50 was < 200 nM. `O=C(c1ccc2c(c1)Sc1cccc(-c3cc(=O)cc(N4CCOCC4)o3)c1S2)N1CCOCC1` [Compound 160] was tested, and the IC50 was < 200 nM. `COc1cc(C(=O)Nc2ccc3c(c2)Cc2cccc(-c4cc(=O)cc(N5CCOCC5)o4)c2S3)cc(OC)c1OC` [Compound 38] was tested, and the IC50 was < 200 nM. For `CN1CCCN(CC(=O)Nc2ccc3c(c2)Cc2cccc(-c4cc(=O)cc(N5CCOCC5)o4)c2S3)CC1` [Compound 59], the IC50 was < 200 nM. `O=C(CCN1CCCC1)Nc1ccc2c(c1)Cc1cccc(-c3cc(=O)cc(N4CCOCC4)o3)c1S2` [Compound 76] was tested, and the IC50 was < 200 nM. With `O=C(NN1CCOCC1)c1ccc2c(c1)Sc1cccc(-c3cc(=O)cc(N4CCOCC4)o3)c1S2` [Compound 165] the IC50 was < 200 nM. With `COC[C@@H]1CCCN1NC(=O)c1ccc2c(c1)Sc1cccc(-c3cc(=O)cc(N4CCOCC4)o3)c1S2` [Compound 163] the IC50 was < 200 nM. `COCCN(CCOC)CCC(=O)Nc1ccc2c(c1)Cc1cccc(-c3cc(=O)cc(N4CCOCC4)o3)c1S2` [Compound 73] was tested, and the IC50 was < 200 nM. For `N#Cc1ccc(C(=O)Nc2ccc(-c3cc(=O)cc(N4CCOCC4)o3)c3c2Cc2ccccc2S3)cc1` [Compound 113], the IC50 was < 200 nM. For `O=C(NCCN1CCN(Cc2ccccc2)CC1)c1ccc2c(c1)Sc1cccc(-c3cc(=O)cc(N4CCOCC4)o3)c1S2` [Compound 179], the IC50 was < 200 nM. In the case of `Nc1ccc(-c2cc(=O)cc(N3CCOCC3)o2)c2c1Cc1ccccc1S2` [Compound 106, 2-(1-Amino-9H-thioxanthen-4-yl)-6-morpholin-4-yl-pyran-4-one], the IC50 is reported as < 200 nM. With `O=c1cc(-c2cccc3c2Sc2ccccc2N3)oc(N2CCOCC2)c1` [Compound 135, 2-Morpholin-4-yl-6-(10H-phenothiazin-4-yl)-pyran-4-one] the IC50 was < 200 nM. `CC(C)CNC(=O)c1ccc2c(c1)Sc1cccc(-c3cc(=O)cc(N4CCOCC4)o3)c1S2` [Compound 145] was tested, and the IC50 was < 200 nM. With `CN1CCN(NC(=O)c2ccc3c(c2)Sc2cccc(-c4cc(=O)cc(N5CCOCC5)o4)c2S3)CC1` [Compound 164] the IC50 was < 200 nM. In the case of `O=c1cc(-c2ccc(OCCNCCO)c3c2Cc2ccccc2S3)oc(N2CCOCC2)c1` [Compound 93], the IC50 is reported as < 200 nM. For `O=c1cc(-c2ccccc2Sc2ccccc2)oc(N2CCOCC2)c1` [Compound 9, 2-(2-Phenylsulfanyl-phenyl)-6-morpholin-4-yl-pyran-4-one], the IC50 was < 20000 nM. `COC(=O)c1ccc2c(c1)Sc1cccc(-c3cc(=O)cc(N4CCOCC4)o3)c1S2` [Compound 137, 6-(6-Morpholin-4-yl-4-oxo-4H-pyran-2-yl)-thianthrene-2-carboxylic acid methyl ester] was tested, and the IC50 was < 200 nM. `NCC(=O)Nc1ccc2c(c1)Cc1cccc(-c3cc(=O)cc(N4CCOCC4)o3)c1S2` [Compound 66] was tested, and the IC50 was < 200 nM. With `CC(C)NC(=O)c1ccc2c(c1)Sc1cccc(-c3cc(=O)cc(N4CCOCC4)o3)c1S2` [Compound 146] the IC50 was < 200 nM. For `O=C(CCN1CCCCC1)Nc1ccc2c(c1)Cc1cccc(-c3cc(=O)cc(N4CCOCC4)o3)c1S2` [Compound 69], the IC50 was < 200 nM. For `O=C(Nc1ccc(-c2cc(=O)cc(N3CCOCC3)o2)c2c1Cc1ccccc1S2)c1ccno1` [Compound 126], the IC50 was < 200 nM. With `O=C(CCN1CCNCC1)Nc1ccc2c(c1)Cc1cccc(-c3cc(=O)cc(N4CCOCC4)o3)c1S2` [Compound 70] the IC50 was < 200 nM. With `O=C(Nc1ccc2c(c1)Cc1cccc(-c3cc(=O)cc(N4CCOCC4)o3)c1S2)c1ccncc1` [Compound 28] the IC50 was < 200 nM.
